{"source": "patent US11932897B2", "about": "“Biosynthesis of curcuminoids in mammalian cells” (University of Kentucky Research Foundation, priority 2018, dated 2024)", "key": {"[1]": {"conditions": "in vivo; cited from earlier work"}, "[2]": {"system": "radiation-induced oral mucositis", "test": "Syrian hamster model of radiation-induced oral mucositis", "conditions": "sustained presence of curcumin from in vivo biosynthesis, versus irradiated hamsters without treatment or with positive control; 60 Gy", "source_text": "Briefly, the hamster is anesthetized, the left cheek pouch is clamped between acrylic sheets to hold it in place, and each cheek pouch is exposed to 60 Gy total irradiation in a linear accelerator (LINAC). The use of the LINAC system provides gamma radiation exposure, is clinically relevant, and provides tight control of the radiation dose, reducing animal-to-animal exposure differences. For up to three weeks after irradiation, the hamsters is weighed daily and cheeks extracted to evaluate injury based on a well-established, validated scale (Table 2).\nEqual numbers of male and female hamsters are randomly divided into groups (n=8). Negative controls comprise non-irradiated, non-treated; nonirradiated, treated; and irradiated, nontreated groups. […] The treatment groups are determined based on the curcuminoid production levels, bioavailability, and duration of production achievable in the in vivo systems described above. A preferred treatment is animals stably producing curcuminoids following AAV8-mediated transfection of liver and providing therapeutically relevant curcuminoid concentrations in circulation. The primary alternative is local AAV-mediated transfection of tissues in the cheek pouch. Another alternative approach is HEK293-ddCCM or HEK-CCM cells encapsulated in lysine/alginate spheres and implanted s.c. or i.p. in tissue cages."}, "[3]": {"system": "reactive oxygen species (ROS) within cells", "test": "CellROX Deep Red assay of cellular oxidative stress after H2O2 treatment", "assay_type": "cell-based", "conditions": "for effect on CellROX fluorescence / oxidation (in words): 1 mM H2O2 for 30 min, then CellROX Deep Red, transfected cells in substrate-supplemented media, or supplemented media alone", "protocol": "Cells were exposed to 1 mM H2O2 for 30 min before incubation with CellROX Deep Red. Blank: untransfected cells. F: ferulic acid-supplemented media. P: p-courmaric acid-supplemented media. pGL3: luciferase-encoding plasmid.\nAdditionally, the antioxidant potential of heterologously produced curcuminoids was investigated using CellROX Deep Red (Invitrogen, Carlsbad, Calif.), a fluorogenic probe for cellular oxidative stress. The cell-permeable CellROX dye is non-fluorescent in its reduced state but becomes highly fluorescent upon oxidation by reactive oxygen species (ROS) within cells. Cells were treated with 1 mM H2O2 to induce oxidative stress and subsequently incubated with CellROX before quantifying the resulting fluorescence (FIG. 11)."}, "[4]": {"conditions": "cited from earlier work"}}}
{"compound": "COc1cc(/C=C/C(=O)CC(=O)/C=C/c2ccc(O)c(OC)c2)ccc1O", "note": "[CCM, curcumin]", "values": [{"measurement": "oral bioavailability", "setting": "[1]", "value": "~1", "unit": "%"}, {"measurement": "severity and duration of OM", "setting": "[2]", "value": "significantly reduces severity and duration of OM"}, {"measurement": "reduction in CellROX fluorescence", "setting": "[3]; cells producing CCM from ferulic acid (4CL1/DCS/CURS1), 1 mM H2O2 for 30 min before CellROX Deep Red", "value": 37, "unit": "%"}, {"measurement": "half-life in plasma", "setting": "[4]", "value": "relatively short"}]}
{"compound": "COc1cc(/C=C/C(=O)O)ccc1O", "note": "[ferulic acid]", "values": [{"measurement": "effect on CellROX fluorescence / oxidation (in words)", "setting": "[3]", "value": "Neither the presence of p-coumaric acid nor ferulic acid, nor transfection with pGL3 (encoding luciferase), had any effect"}]}
{"compound": "O=C(O)/C=C/c1ccc(O)cc1", "note": "[p-coumaric acid]", "values": [{"measurement": "effect on CellROX fluorescence / oxidation (in words)", "setting": "[3]", "value": "Neither the presence of p-coumaric acid nor ferulic acid, nor transfection with pGL3 (encoding luciferase), had any effect"}]}
